# Assay results as given in US11045489B2, “Prognostic methods and systems of treatment for acute lymphoblastic leukemia” (MOR RESEARCH APPLICATIONS LTD., priority 2014, dated 2021).
# Legend:
# Nalm-6 cells [1] = experiment: NAD assay in Nalm-6 cells treated with FK866; format: cell-based; conditions: 1 nM, 1, 3 and 6 hours
# Protocol: (§1) NAMPT is the rate-limiting enzyme in the NAD^+ biosynthetic pathway. Thus, NAD^+ levels in the stimulated cells were measured using a standard NAD^+ assay (Biovision NADH/NAD Quantification Kit).
# (§2) Nalm-6 cells were treated for 1, 3, and 6 hours with 1 nM FK866 (Sigma) and NAD^+ formation was measured using NAD assay as described. […] To measure the effect of NAD^+ depletion following FK866 treatment on Nalm-6 cells, apoptosis and viability were measured. Nalm-6 cells were treated for 48 hours with 1 nM FK866 and apoptosis was measured using FACS.
# Nalm-6 cells [2] = experiment: Apoptosis by FACS in Nalm-6 cells treated with FK866; format: cell-based; conditions: 1 nM, 48 hours
# Protocol: as §2
# Nalm-6 cells [3] = experiment: Sensitivity to FK866 (NAD+ levels) of NALM-6 cells transfected with miR-451 mimic or inhibitor; format: cell-based; conditions: 3 hours
# Protocol: The sensitivity of NALM-6 cells to the NAMPT inhibitor FK866 was measured in cells following transfection with miR-451 mimic or miR-451 inhibitor (FIG. 8). The sensitivity was measured by levels of NAD^+. […] Thus, miR-451 expression can distinguish between patients that could benefit from treatment with NAMPT inhibitors, such as FK866.
# NAMPT [4] = experiment: NAMPT expression by FACS after TPA treatment; format: cell-based; conditions: Peripheral blood cells, 50 ng/ml TPA, 24 hours
# Protocol: Studies by several investigators have shown that 12-0-tetradecanoylphorbol-13-acetate (TPA) (Sigma) is an extraordinarily potent tumor promoter and stimulates protein kinase C (PKC). Since NAMPT is over-expressed in several tumors, it was believed that it might be possible to achieve NAMPT stimulation by TPA treatment. To test this hypothesis. Peripheral blood cells were treated with 50 ng/ml TPA for 24 hours and NAMPT expression was measured by FACS using a specific NAMPT antibody.
# cellular NAD^+ levels = experiment: NAD+ assay in TPA stimulated cells; format: cell-based
# Protocol: as §1
# Nalm-6 cells [5] = experiment: Tumor growth of transfected Nalm-6 cells injected s.c. into NOD/SCID mice; format: in vivo
# Protocol: To further study the putative tumor-suppressive function of hsa-miR-451 in vivo, 10^7 viable Nalm-6 untransfected cells, transfected in vitro with miR-451, or transfected with scrambled control nucleic acid, were injected s.c. into the right flanks of 6-week-old female NOD/SCID mice. […] On day 26, the median tumor volume in the scrambled control mice and the miR-451 mice were 204.69 mm^3 (SE=63.96) and 23.32 mm^3 (SE=13.12) respectively (P=0.019). At the end of the experiment mice were sacrificed and the tumors were weighted. The median tumor weight in the scrambled control mice and the miR-451 mice were 0.0966 gr (SE=0.040) and 0.0159 gr (SE=0.0009) respectively (P=0.046) (FIG. 4C).
# NAMPT [6] = experiment: NAMPT expression by FACS in transfected Nalm-6 cells; format: cell-based; conditions: P<0.05
# Protocol: To determine the effects of miR-451 on NAMPT expression, Nalm-6 cells were transfected with miR-451 mimic (SEQ ID NO: 2) and miR-451 inhibitor (GeneCopoeia miArrest miR-451, an inhibitor expression clone) and NAMPT expression was measured by FACS analysis using a specific NAMPT antibody.
# NAMPT 3′-UTR = experiment: Luciferase reporter assay with NAMPT 3′-UTR; format: cell-based; conditions: P<0.05
# Protocol: To confirm that NAMPT is a direct target of miR-451, luciferase reporter vectors were generated that contained the NAMPT 3′-UTR (LightSwitch NAMPT 3′UTR Reporter GoClone). Luciferase reporter assays (LightSwitch Luciferase Assay; SwitchGear) were then performed in the presence and absence of miR-451mimic and inhibitor to determine whether NAMPT was a direct downstream target of miR-451. The relative luciferase activity of the reporter that contained NAMPT 3′-UTR was decreased in 80% when miR-451 mimics were transfected.
# SOCS4 = SOCS4 protein levels by Western blotting in transfected Nalm6 cells; format: cell-based; conditions: Nalm6 cell line, over-expression of miR-1290, Western blotting
# Protocol: Following transfection of miR-1290 mimic (SEQ ID NO: 4, over-expression), miR-1290 inhibitor (SEQ ID NO: 5, silencing), and miR-scramble (control), into the Nalm6 cell line, the protein levels of SOCS4 were measured using Western blotting (p=0.029; FIG. 9). The values shown in the figure are mean±S.D from 3 experiments.
# Phosphorylated STAT5 = experiment: Phospho-STAT5 levels by FACS in transfected NALM-6 cells; format: cell-based; conditions: NALM-6 cell line
# Protocol: Phosphorylated STAT5 (phospho-STAT5) levels were measured by FACS analysis following transfection of miR-1290 mimic (overexpression) into NALM-6 cell line. An increase of 50% in the levels of pSTAT5 protein is evident in the cells expressing high levels of miR-1290 (FIG. 11).
compound,measurement,setting,value
O=C(/C=C/c1cccnc1)NCCCCC1CCN(C(=O)c2ccccc2)CC1 [FK866],NAD^+ detection following treatment,Nalm-6 cells [1],gradual decrease
same,apoptosis,Nalm-6 cells [2],induced apoptosis
same,change in NAD+ production after FK866 treatment compared to Nalm-6/miR-NC,Nalm-6 cells [3]; Nalm-6/miR-451 cells (miR-451 mimic),less change
same,change in NAD+ production after FK866 treatment compared to Nalm-6/miR-NC,"Nalm-6 cells [3]; Nalm-6/miR-inhibitor cells, p=0.003",more than 5 fold
"CCCCCCCCCCCCCC(=O)O[C@@H]1[C@@H](C)[C@@]2(O)[C@@H](C=C(CO)C[C@]3(O)C(=O)C(C)=C[C@@H]23)[C@H]2C(C)(C)[C@]12OC(C)=O [TPA, 12-0-tetradecanoylphorbol-13-acetate]",increase in NAMPT expression levels,NAMPT [4],more than 4 folds
same,cellular NAD^+ levels higher,cellular NAD^+ levels,2 fold
"miR-451 mimic: miR-451 mimic (SEQ ID NO: 2) transfected into Nalm-6 cells by electroporation (AAACCGUUACCAUUACUGAGUU; listed as RNA, chemistry not given here; listed as Homo sapiens)",tumor growth,"Nalm-6 cells [5]; NOD/SCID mice, Nalm-6/miR-451 cells s.c., versus scrambled miR control",significantly decreased tumor growth
same,median tumor volume,"Nalm-6 cells [5]; day 26, NOD/SCID mice, Nalm-6 cells transfected in vitro, P=0.019 vs scrambled control",23.32 mm^3
same,median tumor weight,"Nalm-6 cells [5]; end of the experiment, NOD/SCID mice, P=0.046 vs scrambled control",0.0159 gr
same,NAMPT protein expression decreased by,NAMPT [6],46%
same,relative luciferase activity of NAMPT 3′-UTR reporter decreased,NAMPT 3′-UTR,80%
"miR-1290 mimic: miR-1290 mimic (SEQ ID NO: 4, over-expression) transfected into Nalm6 cell line (UGGAUUUUUGGAUCACCUGAUCCAAAAAU; listed as RNA, chemistry not given here)",SOCS4 protein levels,SOCS4,down-regulation
same,increase in the levels of pSTAT5 protein,Phosphorylated STAT5,50%
